BindingDB's records for doi:10.1021/acs.jmedchem.2c01229 (University of Siena, 2023)

Assay: Inhibition of SARS-CoV-1 RdRp-mediated viral replication

Q: Which IC50 does the source give for `CN(C)CCCSc1ccccc1NC(=O)/C=C/c1ccccc1` [CINANSERIN] here?
A: The IC50 was 34 µM.
